Measured values as given in US5721207A, “Method for treatment of pain” (Innapharma, Inc., priority 1995, dated 1998).
Read-outs that look alike come from different tables or passages of the source.

How the values were obtained:
rat [1] = assay: Rat hot plate test, 10 single daily intrathecal doses of elcatonin over 11 days (Example 12); format: in vivo; conditions: 4.4 IU/kg intrathecal, 10 daily doses in two 5 day phases (FIG. 8)
Protocol: Intrathecal catheters were implanted in rats as described hereinabove, and a 7-10 day period thereafter allowed for full recovery from the surgical procedures. Nine rats were assigned to three treatment groups of three rats per group. The study is conducted in two 5 day treatment phases separated by a 48 hour nontreatment interval. Treatment Group I rats receive no treatment (sham injection). In each treatment phase, Group II rats received five consecutive daily intrathecal doses of sterile physiological saline (vehicle control), for a total of 10 injections per study treatment.
For each treatment, hot plate latencies are determined as described in Example 5 hereinabove at 0 minutes (predose, baseline), 1 hour, 3 hours, and 24 hours following injection on the 1st, 3rd, 5th, 7th, 9th and 11th study days (Table 4).

rat [2] = assay: Rat hot plate test, single intravenous elcatonin (Example 10); format: in vivo
Protocol: A total of 24 rats, ranging in weight from 320 to 420 g, was used in this study. Four to eight rats were used for each dose level. […] The doses used were 10, 30, 100 and 300 IU/kg (1.61, 4.83, 16.1 and 48.3 μg/kg, respectively).

rat [3] = assay: Rat hot plate test, intrathecal elcatonin with 0.1% human serum albumin (Example 13); format: in vivo; conditions: 4.4 IU/kg intrathecal in 0.1% HSA, 5 day multiple administrations (FIG. 9)
Protocol: On each study day, a standard 25% (wt/vol) solution of HSA is diluted under aseptic conditions with physiological saline ([…] of NaCl, USP grade) to achieve the desired stock solution concentration of 0.2% (wt/vol).
Thirty-two male rats (320-420 g) are obtained, adapted, catheterized and recovered as described hereinabove. […] Group II rats are injected intrathecally with a dose of 4.4 IU/kg in physiological saline containing 0.1% HSA, in a volume of 10 μL/kg. Group III rats are injected with physiological saline containing 0.1% HSA, 10 μL/kg. Each dose is followed by a washout of 8 μL of physiological saline.
In each of the study groups, hot plate latencies are determined at 0 minutes (baseline, predose), 1 hour, 3 hours, 6 hours, and 24 hours following intrathecal injections on the 1st, 3rd and 5th study days.

rat [4] = conditions: 2.4 IU/kg (0.39 μg/kg, 0.12 nmol/kg) intrathecal single
Protocol: Intrathecal catheters were surgically implanted in the rats after application of anesthetic (Nembutal, 30 mg/kg, intraperitoneal) 5-7 days prior to the test procedure. The 5-7 day period prior to testing allowed for full recovery from the surgical procedures. […] Each catheter was anchored to the skull with cyanoacrylate adhesive, and the skull was closed with wound clips. The free end of each catheter was heat annealed; when compositions were to be injected via the intrathecal route each composition was introduced therein using a Hamilton needle inserted into the sealed catheter.
Pain sensitivity was assessed using a standard analgesiometric hot plate test (Woolfe and MacDonald (1944) J. Pharmacol. Exp. Ther. 80:300). The hot plate response was determined by placing a rat on a 55° C. copper hot plate enclosed in a plexiglass cylinder.
Because of the technical demands of these experiments, no more than 8-9 rats were tested on a given day. Sufficient animals were studied to obtain 10-11 evaluable rats per test condition. On the study day, animals were tested for baseline hot plate responses, and then received bolus injections of test analgesic or physiological saline (control). Hot plate responses were assessed again at 15 min, 30 min, 1 hr, 3 hr, 6 hr and 24 hr after intrathecal injection of test compound or vehicle control.
Ninety-six (96) rats, ranging in weight from 320 g to 420 g, were used in this study. Catheters were implanted and recovery was allowed for as described hereinabove. […] Drug or saline vehicle doses were administered using Hamilton needles inserted into the catheters, with a dose volumes of 37.5 μL/kg followed by a 10 μL saline catheter wash-out. Baseline (pre-drug) and responses at 15 min, 30 min, 1 hr, 3 hr, 6 hr and 24 hr after drug or vehicle injection were determined.

## [Des-Cys^1,ASU^7 ]-Calcitonin, Eel [Elcatonin]
Rat [1]
  analgesic effect over time: cumulative analgesic effect over time
  hot plate latency: hot plate latency is increased
Rat [2]; 10.0 IU/kg (1.61 μg/kg) intravenous single, 0 hr (baseline)
  Hot Plate Latency (Mean ± SEM): 12.03 ± 1.02 s
Rat [2]; 10.0 IU/kg (1.61 μg/kg) intravenous single, 0.25 hr
  Hot Plate Latency (Mean ± SEM): 11.95 ± 1.40 s
Rat [2]; 10.0 IU/kg (1.61 μg/kg) intravenous single, 0.5 hr
  Hot Plate Latency (Mean ± SEM): 15.64 ± 2.39 s
Rat [2]; 10.0 IU/kg (1.61 μg/kg) intravenous single, 1 hr
  Hot Plate Latency (Mean ± SEM): 14.95 ± 2.92 s
Rat [2]; 10.0 IU/kg (1.61 μg/kg) intravenous single, 3 hr
  Hot Plate Latency (Mean ± SEM): 14.11 ± 0.94 s
Rat [2]; 10.0 IU/kg (1.61 μg/kg) intravenous single, 6 hr
  Hot Plate Latency (Mean ± SEM): 10.45 ± 1.03 s
Rat [2]; 10.0 IU/kg (1.61 μg/kg) intravenous single, 24 hr
  Hot Plate Latency (Mean ± SEM): 8.86 ± 1.23 s
Rat [2]; 30.0 IU/kg (4.83 μg/kg) intravenous single, 0 hr (baseline)
  Hot Plate Latency (Mean ± SEM): 10.71 ± 1.02 s
Rat [2]; 30.0 IU/kg (4.83 μg/kg) intravenous single, 0.25 hr
  Hot Plate Latency (Mean ± SEM): 10.04 ± 0.96 s
Rat [2]; 30.0 IU/kg (4.83 μg/kg) intravenous single, 0.5 hr
  Hot Plate Latency (Mean ± SEM): 12.18 ± 1.22 s
Rat [2]; 30.0 IU/kg (4.83 μg/kg) intravenous single, 1 hr
  Hot Plate Latency (Mean ± SEM): 14.14 ± 1.14 s
Rat [2]; 30.0 IU/kg (4.83 μg/kg) intravenous single, 3 hr
  Hot Plate Latency (Mean ± SEM): 14.26 ± 1.39 s
Rat [2]; 30.0 IU/kg (4.83 μg/kg) intravenous single, 6 hr
  Hot Plate Latency (Mean ± SEM): 15.12 ± 2.20 s
Rat [2]; 30.0 IU/kg (4.83 μg/kg) intravenous single, 24 hr
  Hot Plate Latency (Mean ± SEM): 10.76 ± 1.25 s
Rat [2]; 100.0 IU/kg (16.1 μg/kg) intravenous single, 0 hr (baseline)
  Hot Plate Latency (Mean ± SEM): 13.53 ± 1.63 s
Rat [2]; 100.0 IU/kg (16.1 μg/kg) intravenous single, 0.25 hr
  Hot Plate Latency (Mean ± SEM): 11.05 ± 1.99 s
Rat [2]; 100.0 IU/kg (16.1 μg/kg) intravenous single, 0.5 hr
  Hot Plate Latency (Mean ± SEM): 9.63 ± 1.21 s
Rat [2]; 100.0 IU/kg (16.1 μg/kg) intravenous single, 1 hr
  Hot Plate Latency (Mean ± SEM): 11.20 ± 1.95 s
Rat [2]; 100.0 IU/kg (16.1 μg/kg) intravenous single, 3 hr
  Hot Plate Latency (Mean ± SEM): 14.76 ± 1.19 s
Rat [2]; 100.0 IU/kg (16.1 μg/kg) intravenous single, 6 hr
  Hot Plate Latency (Mean ± SEM): 14.00 ± 1.83 s
Rat [2]; 100.0 IU/kg (16.1 μg/kg) intravenous single, 24 hr
  Hot Plate Latency (Mean ± SEM): 14.30 ± 1.33 s
Rat [2]; 300.0 IU/kg (48.3 μg/kg) intravenous single, 0 hr (baseline)
  Hot Plate Latency (Mean ± SEM): 11.22 ± 0.38 s
Rat [2]; 300.0 IU/kg (48.3 μg/kg) intravenous single, 0.25 hr
  Hot Plate Latency (Mean ± SEM): 11.05 ± 3.82 s
Rat [2]; 300.0 IU/kg (48.3 μg/kg) intravenous single, 0.5 hr
  Hot Plate Latency (Mean ± SEM): 11.65 ± 2.31 s
Rat [2]; 300.0 IU/kg (48.3 μg/kg) intravenous single, 1 hr
  Hot Plate Latency (Mean ± SEM): 12.65 ± 2.09 s
Rat [2]; 300.0 IU/kg (48.3 μg/kg) intravenous single, 3 hr
  Hot Plate Latency (Mean ± SEM): 17.37 ± 4.25 s
Rat [2]; 300.0 IU/kg (48.3 μg/kg) intravenous single, 6 hr
  Hot Plate Latency (Mean ± SEM): 11.55 ± 2.80 s
Rat [2]; 300.0 IU/kg (48.3 μg/kg) intravenous single, 24 hr
  Hot Plate Latency (Mean ± SEM): 10.52 s
Rat [2]; at 0.5 hr
  intravenous dose producing a hot plate latency similar to 1.6 IU/kg (0.25 μg/kg) intrathecal: 10.0 IU/kg
Rat [2]; intravenous, 10-300 IU/kg
  increase in hot plate latencies: only small increases in hot plate latencies
Rat [2]; intravenous, 10 IU/kg
  time of peak effects: 30 min
Rat [2]; intravenous, 10 to 300 IU/kg
  dose response effect: No significant dose response effect was observed
Rat [2]; intravenous, 30-300 IU/kg
  time of peak effects: 180 to 360 min
Rat [3]
  hot plate latency: increase in rat hot plate latency
Rat [4]; 0 hr (baseline)
  Hot Plate Latency (Mean ± SEM): 13.54 ± 1.91 s
Rat [4]; 0.25 hr
  Hot Plate Latency (Mean ± SEM): 19.70 ± 1.75 s
Rat [4]; 0.5 hr
  Hot Plate Latency (Mean ± SEM): 23.90 ± 3.12 s
Rat [4]; 1 hr
  Hot Plate Latency (Mean ± SEM): 24.68 ± 1.80 s
Rat [4]; 3 hr
  Hot Plate Latency (Mean ± SEM): 13.0 ± 0.7 s
